Series [1] deals with mice. The series can be described thus: analgesic effect on mice, method of Newbould. Format: in vivo. As to conditions: oral; for ED50: Mus musculus. The method, then:
The analgesic effects of the new compounds were tested on mice after oral administration, as described by Newbould [Brit.

For series [2], the system named is mice. Put plainly: animal or person. Format: in vivo. As to conditions: potentiation of the toxicity of yohimbine, oral; for ED50: Mus musculus. The method, then: The ability of the compounds in potentiating the toxicity of yohimbine was tested on mice by the method of Quinton [Brit. J. Pharmacol. 21, 51 (1963)]. The compounds were administered orally to the animals.

Series [3] has as its system mice. The series can be described thus: narcosis potentiating effect on mice, method of Kaergaard. As to conditions: for ED50: Mus musculus, po; for Therapeutical index: narcosis potentiating effect, mice, oral.
Experimental: The narcosis potentiating effects was tested on mice according to the method of Kaergaard [Arch. […] The compounds under examination were administered orally to the animals.
Series [4] concerns mice. The series can be described thus: motility inhibiting effect on mice, method of Borsy et al. In kind it is in vivo. As to conditions: for ED50: Mus musculus. The method, then: The motility inhibiting effects of the new compounds were tested on mice by the method of Borsy et al. [Int. Pharmacodyn. […] The compounds to be tested were administered orally to the animals.
The test system of a further series is rats. Put plainly: antiphlogistic effect on rats, method of Winter. As to conditions: oral; for ED50: Rattus norvegicus. Format: in vivo. Here is the method: The antiphlogistic effects of the new compounds were determined on rats by the method of Winter [Proc. Soc. Exp. Biol. Med. 111, 544 (1962)]. The compounds were administered orally to the animals.
Series [5] concerns mice. Put plainly: tetrabenazine antagonizing effect (inhibition of ptosis provoked by tetrabenazine) on mice, method of Brodie. Format: in vivo. As to conditions: oral.
The next series is described as follows: in vivo. As to conditions: mouse, mice, oral. The method, then:
The toxicity was determined on mice after oral adminstration.

Where [6] appears, read: motility inhibiting effect, mice, oral.

Usually ED50 stands for the midpoint of the dose-response relation. Compound `CC(=O)Nc1ccc(O)cc1` [Paracetamol, reference compound] yielded an ED50 with mice [1] of 180 mg/kg.

What is called LD50 is the dose at which mortality reaches 50%. Low readings indicate a more toxic substance, high ones a less toxic substance. For `CCC(=O)N1NC(N(C(C)C)C(C)C)=Nc2ncccc21` [Example 2, 3-diisopropylamino-1-propionyl-1,2-dihydro-pyrido[2,3-e]-as-triazine], the ED50 in the series on mice [2] came to 140 mg/kg; with mice [3], 40 mg/kg; in the series with mice [4] (motility inhibiting effect, mice, oral, read-out: ED50) it was 250 mg/kg; in the series on mice [1], 350 mg/kg; in the series on rats, 450 mg/kg; in the series on mice [5] (Mus musculus) it was 150 mg/kg. Besides, the Therapeutical index with mice [2] is 14.3; in the series with mice [3], 50; in the series with mice [4] (setting [6]) it was 8; in the series with mice [1] it was 5.7; in the series with rats, 4.4; in the series on mice [5], 13.3. Also, the median lethal dose (LD50) in the series “in vivo” worked out at 2000 mg/kg.

Regarding `CCC(=O)N1C(N2CCOCC2)=Nc2ncccc2N1C(=O)CC` [Example 1, 3-morpholino-1,2-dipropionyl-1,2-dihydro-pyrido[2,3-e]-as-triazine], the ED50 with mice [2] was 320 mg/kg; in the series on mice [3] it was 54 mg/kg; with mice [1], 300 mg/kg; with rats, 300 mg/kg. Further, the Therapeutical index was determined as 5 in the series with mice [2]; 29.6 with mice [3]; 5 with mice [4] (setting [6]); 5.3 in the series on mice [1]; 5.3 in the series with rats; 5 in the series with mice [5]. In addition, in the series “in vivo”, the LD50 stood at 1600 mg/kg.

Turning to `CCCC(C)(COC(N)=O)COC(N)=O` [Meprobamate, reference compound], the ED50 is 250 mg/kg in the series with mice [3] and 270 mg/kg with mice [4] (po). For the same compound, the Therapeutical index in the series with mice [3] was 4.2; in the series on mice [4] (setting [6]) it was 4.1.

Values taken from patent US4324786A, “Pyrido[2,3-e]-as-triazine derivatives and pharmaceutical compositions” (Egyt Gyogyszervegyeszeti Gyar, priority 1979, dated 1982).
